Data as given in article PMC5086599 (Viruses, 2016).
Read-outs that look alike come from different tables or passages of the source.

What was measured:
[1] = test system: HIV-1 Y181C mutant virus in Hela P4/R5 cells; assay: HIV-1 single cycle replication assay, Y181C mutant virus; type: cell-based
[2] = test system: HIV-1 K103N mutant virus in Hela P4/R5 cells; assay: HIV-1 single cycle replication assay, K103N mutant virus; type: cell-based
[3] = test system: HIV-1 K103N/Y188F mutant virus in Hela P4/R5 cells; assay: HIV-1 single cycle replication assay, K103N/Y188F mutant virus; type: cell-based
[4] = test system: HIV-1 Y181F/Y188F mutant virus in Hela P4/R5 cells; assay: HIV-1 single cycle replication assay, Y181F/Y188F mutant virus; type: cell-based
[5] = test system: HIV-1 Y181F mutant virus in Hela P4/R5 cells; assay: HIV-1 single cycle replication assay, Y181F mutant virus; type: cell-based
[6] = test system: HIV-1 Y188F mutant virus in Hela P4/R5 cells; assay: HIV-1 single cycle replication assay, Y188F mutant virus; type: cell-based
[7] = test system: HIV-1 Y188L mutant virus in Hela P4/R5 cells; assay: HIV-1 single cycle replication assay, Y188L mutant virus; type: cell-based
[8] = test system: HIV-1 K103A mutant virus in Hela P4/R5 cells; assay: HIV-1 single cycle replication assay, K103A mutant virus; type: cell-based
[9] = test system: HIV-1 K103E mutant virus in Hela P4/R5 cells; assay: HIV-1 single cycle replication assay, K103E mutant virus; type: cell-based
[10] = test system: HIV-1 WT virus (HXB2) in Hela P4/R5 cells; assay: HIV-1 single cycle replication assay, WT virus; type: cell-based; settings: read-out: EC50 against WT virus
HIV-1 WT RT (non-bio-RT) = test system: HIV-1 WT RT (non-bio-RT); parameters: method as in earlier work; settings: reported previously, read-out: Inhibitory potency IC50 versus WT RT (non-biotinylated); cited from earlier work
[11] = Human immunodeficiency virus 1, read-out: EC50 against Y181C mutant virus
[12] = Human immunodeficiency virus 1, read-out: EC50 against K103N mutant virus
[13] = Human immunodeficiency virus 1, read-out: EC50 against K103N/Y188F mutant virus
[14] = Human immunodeficiency virus 1, read-out: EC50 against Y181F/Y188F mutant virus
[15] = Human immunodeficiency virus 1, read-out: EC50 against Y181F mutant virus
[16] = Human immunodeficiency virus 1, read-out: EC50 against Y188F mutant virus
[17] = Human immunodeficiency virus 1, read-out: EC50 against Y188L mutant virus
[18] = Human immunodeficiency virus 1, read-out: EC50 against K103A mutant virus
[19] = Human immunodeficiency virus 1, read-out: EC50 against K103E mutant virus
[20] = Human immunodeficiency virus 1, HXB2, single-cycle replication, Hela P4/R5 cells, 48 h, mean ± SD

SMILES	EC50 [1, 11]	EC50 [2, 12]	EC50 [3, 13]	EC50 [4, 14]	EC50 [5, 15]	EC50 [6, 16]	EC50 [7, 17]	EC50 [8, 18]	EC50 [9, 19]	IC50 (HIV-1 WT RT (non-bio-RT))	EC50 [10, 20]	further results
CC(C)Nc1cccnc1N1CCN(C(=O)c2cc3cc(NS(C)(=O)=O)ccc3[nH]2)CC1 [DLV, delavirdine]	1150 ± 301 nM	2600 ± 346 nM	1500 ± 43 nM	4.1 ± 0.12 nM	8.6 ± 1.3 nM	14 ± 4 nM	913 ± 90 nM	38 ± 12 nM	64 ± 7 nM	–	–	EC50 ([10]; Human immunodeficiency virus 1, HXB2, 48 h): 26 ± 7 nM
O=C1Nc2ccc(Cl)cc2[C@@](C#CC2CC2)(C(F)(F)F)O1 [EFV, efavirenz]	1.4 ± 0.1 nM	69 ± 5.7 nM	40 ± 8.1 nM	0.4 ± 0.1 nM	0.5 ± 0.07 nM	0.3 ± 0.05 nM	639 ± 63 nM	2 ± 0.2 nM	0.9 ± 0.3 nM	0.42 nM	1.2 nM	Y188F mutant virus more sensitive to inhibition than WT virus ([6]; fold more sensitive than WT virus): ~ 4 fold
Cc1ccnc2c1NC(=O)c1cccnc1N2C1CC1 [NVP, nevirapine]	–	–	–	–	–	–	–	–	–	137 nM	95 ± 6 nM	EC50 ([1]; Human immunodeficiency virus 1, single-cycle replication, Hela P4/R5 cells, mean ± SD, read-out: EC50 against Y181C mutant virus): 2270 ± 197 nM; EC50 ([2]; Human immunodeficiency virus 1, single-cycle replication, Hela P4/R5 cells, mean ± SD, read-out: EC50 against K103N mutant virus): 5080 ± 1690 nM; EC50 ([3]; Human immunodeficiency virus 1, single-cycle replication, Hela P4/R5 cells, mean ± SD, read-out: EC50 against K103N/Y188F mutant virus): 14500 nM; EC50 ([4]; Human immunodeficiency virus 1, single-cycle replication, Hela P4/R5 cells, mean ± SD, read-out: EC50 against Y181F/Y188F mutant virus): 34 ± 2.5 nM; EC50 ([5]; Human immunodeficiency virus 1, single-cycle replication, Hela P4/R5 cells, mean ± SD, read-out: EC50 against Y181F mutant virus): 37 ± 7 nM; EC50 ([6]; Human immunodeficiency virus 1, single-cycle replication, Hela P4/R5 cells, mean ± SD, read-out: EC50 against Y188F mutant virus): 62 ± 11 nM; EC50 ([7]; Human immunodeficiency virus 1, single-cycle replication, Hela P4/R5 cells, mean ± SD, read-out: EC50 against Y188L mutant virus): > 25000 nM; EC50 ([8]; Human immunodeficiency virus 1, single-cycle replication, Hela P4/R5 cells, mean ± SD, read-out: EC50 against K103A mutant virus): 216 ± 51 nM; EC50 ([9]; Human immunodeficiency virus 1, single-cycle replication, Hela P4/R5 cells, mean ± SD, read-out: EC50 against K103E mutant virus): 65 ± 27 nM
